Source: US12662491B2 (Redona Therapeutics, Inc., priority 2020, dated 2026)
Where two headings read alike, the source gives them in different places.

Target: T1, Zcchc11 enzyme (Homo sapiens, UniProt Q5TAX3)
T1 construct: made in house; host or cells: HEK293 cells (Zcchc11); E. coli Rosetta II (LIN28A)
T1 sequence (Q5TAX3 212-1420): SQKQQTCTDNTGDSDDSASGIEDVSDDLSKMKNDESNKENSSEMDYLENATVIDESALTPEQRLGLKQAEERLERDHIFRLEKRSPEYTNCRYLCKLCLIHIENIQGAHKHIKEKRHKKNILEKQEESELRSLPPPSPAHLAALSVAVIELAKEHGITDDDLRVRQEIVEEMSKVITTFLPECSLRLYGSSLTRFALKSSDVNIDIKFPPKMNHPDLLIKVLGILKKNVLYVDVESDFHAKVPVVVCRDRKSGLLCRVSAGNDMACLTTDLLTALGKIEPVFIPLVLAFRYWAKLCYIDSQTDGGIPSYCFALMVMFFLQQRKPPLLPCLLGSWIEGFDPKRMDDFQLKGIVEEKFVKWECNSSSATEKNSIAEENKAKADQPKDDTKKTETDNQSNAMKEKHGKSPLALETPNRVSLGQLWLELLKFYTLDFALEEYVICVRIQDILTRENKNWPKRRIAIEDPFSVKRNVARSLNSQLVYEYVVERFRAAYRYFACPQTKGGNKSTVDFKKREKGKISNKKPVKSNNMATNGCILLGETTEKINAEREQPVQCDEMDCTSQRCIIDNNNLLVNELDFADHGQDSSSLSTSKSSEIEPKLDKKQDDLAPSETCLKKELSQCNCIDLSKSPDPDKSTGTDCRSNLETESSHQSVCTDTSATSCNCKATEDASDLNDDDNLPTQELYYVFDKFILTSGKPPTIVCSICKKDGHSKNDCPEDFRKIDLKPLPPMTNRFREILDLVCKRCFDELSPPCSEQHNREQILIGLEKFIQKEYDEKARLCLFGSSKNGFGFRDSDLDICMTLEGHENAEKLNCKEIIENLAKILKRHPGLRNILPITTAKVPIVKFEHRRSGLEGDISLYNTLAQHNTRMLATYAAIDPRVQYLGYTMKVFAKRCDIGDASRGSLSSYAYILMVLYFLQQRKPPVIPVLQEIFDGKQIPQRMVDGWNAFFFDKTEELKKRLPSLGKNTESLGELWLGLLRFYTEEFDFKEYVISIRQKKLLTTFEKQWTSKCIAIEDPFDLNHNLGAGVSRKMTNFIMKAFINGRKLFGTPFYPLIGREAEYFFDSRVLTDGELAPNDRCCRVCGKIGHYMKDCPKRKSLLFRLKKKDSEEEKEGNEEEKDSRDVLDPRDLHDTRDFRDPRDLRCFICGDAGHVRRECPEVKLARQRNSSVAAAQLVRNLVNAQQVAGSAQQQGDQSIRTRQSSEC
Experiment: TUTase assay (Zcchc11 assay, Lin28a-dependent polyuridylation of pre-let-7)
Assay type: biochemical
Conditions: read-out: Potency Lin28a-dep Z11 IC50
Method in brief: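 Potency is measured as inhibition of LIN28A-driven U-tail addition to 2 nM pre-let-7 by 0.2 nM HEK293-derived Zcchc11 fragment with 5 uM UTP at room temperature. Tail growth appears as fluorescein quenching by an annealing rhodamine-A20 probe.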

[1] = Lin28a-dependent Zcchc11 (Z11) TUTase activity
[2] = Lin28a-dependent Zcchc11 (Z11) TUTase assay
[3] = LIN28A 10 nM, Zcchc11 0.2 nM, 5′-fluorescein pre-let-7 miRNA 2 nM, UTP 5 uM, room temperature, 30 minutes pre-incubation

Compound	IC50 [1] [µM]	IC50 [2] [µM]	also measured
O=C(O)c1cn(-c2cnn(C3CNC3)c2)c2cc(N3CCC[C@@H]3COc3ncccc3Cl)c(Cl)cc2c1=O [Compound 243, 1-[1-(azetidin-3-yl)pyrazol-4-yl]-6-chloro-7-[(2R)-2-[[(3-chloropyridin-2-yl)oxy]methyl]pyrrolidin-1-yl]-4-oxoquinoline-3-carboxylic acid]	≤ 1		
CN(CCN1CCC1)c1ccc(-n2cc(C(=O)O)c(=O)c3cc(Cl)c(N4CCC[C@@H]4COc4ncccc4Cl)cc32)cn1 [Example 601, (R)-1-(6-((2-(azetidin-1-yl)ethyl)(methyl)amino)pyridin-3-yl)-6-chloro-7-(2-(((3-chloropyridin-2-yl)oxy)methyl)pyrrolidin-1-yl)-4-oxo-1,4-dihydroquinoline-3-carboxylic acid]		≤ 1	
C#Cc1cc2c(=O)c(C(=O)O)cn(-c3ccc(N4CC(N(C)C)C4)nc3)c2cc1N1CCC[C@@H]1COc1ncccc1Cl [Example 592, (R)-7-(2-(((3-chloropyridin-2-yl)oxy)methyl)pyrrolidin-1-yl)-1-(6-(3-(dimethylamino)azetidin-1-yl)pyridin-3-yl)-6-ethynyl-4-oxo-1,4-dihydroquinoline-3-carboxylic acid]		≤ 1	
O=C(O)c1cn(-c2ccncc2)c2cc(N3CCC[C@@H]3COc3ncccc3Cl)c(Cl)cc2c1=O [Example 490, (R)-6-chloro-7-(2-(((3-chloropyridin-2-yl)oxy)methyl)pyrrolidin-1-yl)-4-oxo-1-(pyridin-4-yl)-1,4-dihydroquinoline-3-carboxylic acid]		≤ 1	
O=C(O)c1cn(-c2ccc(O)nc2)c2cc(N3CCC[C@@H]3COc3ncccc3Cl)c(Cl)cc2c1=O [Example 414, (R)-6-chloro-7-(2-(((3-chloropyridin-2-yl)oxy)methyl)pyrrolidin-1-yl)-1-(6-hydroxy-pyridin-3-yl)-4-oxo-1,4-dihydroquinoline-3-carboxylic acid]		≤ 1	
CN(C)C1CN(c2ccc(-n3cc(C(=O)O)c(=O)c4cc(Cl)c(N5[C@@H](COc6nc(N)ccc6Cl)C[C@H]6C[C@H]65)cc43)cn2)C1 [Compound 339, 7-[(3R)-3-{[(6 Amino-3-chloropyridin-2-yl)oxy]methyl}-2-azabicyclo [3.1.0]hexan-2-yl]-6-chloro-1-{6-[3-(dimethyl-amino)azetidin-1-yl]pyridin-3-yl}-4-oxoquinoline-3-carboxylic acid]	≤ 1		
CN(C)CCOc1cnc(-n2cc(C(=O)O)c(=O)c3cc(F)c(N4CCC[C@@H]4COc4ncccc4Cl)cc32)cn1 [Example 16, (R)-7-(2-(((3-chloropyridin-2-yl)oxy)methyl)pyrrolidin-1-yl)-1-(5-(2-(dimethylamino)ethoxy)pyrazin-2-yl)-6-fluoro-4-oxo-1,4-dihydroquinoline-3-carboxylic acid]			IC50 [3]: ≤ 1 µM
CN(C)[C@@H]1CCN(c2ccc(-n3cc(C(=O)O)c(=O)c4cc(C#N)c(N5CCC[C@@H]5COc5ncccc5Cl)cc43)cn2)C1 [Example 563, 7-((R)-2-(((3-chloropyridin-2-yl)oxy)methyl)pyrrolidin-1-yl)-6-cyano-1-(6-((R)-3-(dimethylamino)pyrrolidin-1-yl)pyridin-3-yl)-4-oxo-1,4-dihydroquinoline-3-carboxylic acid]		≤ 1	
CN(C)C1CN(c2ccc(-n3cc(C(=O)O)c(=O)c4cc(C#N)c(N5CCC[C@@H]5COc5ncccc5Cl)cc43)cn2)C1 [Example 542, (R)-7-(2-(((3-chloropyridin-2-yl)oxy)methyl)pyrrolidin-1-yl)-6-cyano-1-(6-(3-(dimethylamino)azetidin-1-yl)pyridin-3-yl)-4-oxo-1,4-dihydroquinoline-3-carboxylic acid]		≤ 1	
C[C@H]1CCN(c2cc3c(cc2Cl)c(=O)c(C(=O)O)cn3-c2ccc(N3CC(N(C)C)C3)nc2)[C@H]1COc1ncccc1Cl (racemic) [Example 44, rac-6-chloro-7-((2R,3S)-2-(((3-chloropyridin-2-yl)oxy)methyl)-3-methylpyrrolidin-1-yl)-1-(6-(3-(dimethylamino)azetidin-1-yl)pyridin-3-yl)-4-oxo-1,4-dihydroquinoline-3-carboxylic acid]			IC50 [3]: ≤ 1 µM
Cc1cccnc1OC[C@H]1CCCN1c1cc2c(cc1F)c(=O)c(C(=O)O)cn2-c1ccc(N)nc1 [Example 13, (R)-1-(6-aminopyridin-3-yl)-6-fluoro-7-(2-(((3-methylpyridin-2-yl)oxy)methyl)pyrrolidin-1-yl)-4-oxo-1,4-dihydroquinoline-3-carboxylic acid]			IC50 [3]: ≤ 1 µM

Second part, led by results:

IC50 [1] [µM]	IC50 [2] [µM]	Compound	also measured
≤ 1		COc1ccc(Cl)c(OC[C@H]2CC(C(C)C)CN2c2cc3c(cc2Cl)c(=O)c(C(=O)O)cn3-c2ccc(N3CC(N(C)C)C3)nc2)n1 (mixture of isomers) [Compound 227, Rac-6-chloro-7-((2R)-2-(((3-chloro-6-(11-oxidaneyl)pyridin-2-yl)oxy)methyl)-4-isopropyl-pyrrolidin-1-yl)-1-(6-(3-(dimethyl-amino)azetidin-1-yl)pyridin-3-yl)-4-oxo-1,4-dihydro-quinoline-3-carboxylic acid]	
	≤ 1	Cc1cccnc1OC[C@H]1CCCN1c1cc2c(cc1F)c(=O)c(C(=O)O)cn2-c1ccc2[nH]ccc2c1 [Example 442, (R)-6-fluoro-1-(1H-indol-5-yl)-7-(2-(((3-methyl-pyridin-2-yl)oxy)methyl)pyrrolidin-1-yl)-4-oxo-1,4-dihydroquinoline-3-carboxylic acid]	
≤ 1		COc1ccc(Cl)c(OC[C@H]2C[C@H]3C[C@H]3N2c2cc3c(cc2F)c(=O)c(C(=O)O)cn3-c2ccnc(N)c2)n1 [Compound 199, 1-(2-aminopyridin-4-yl)-7-((1R,3R,5R)-3-(((3-chloro-6-methoxy-pyridin-2-yl)oxy)methyl)-2-azabicyclo [3.1.0]hexan-2-yl)-6-fluoro-4-oxo-1,4-dihydro-quinoline-3-carboxylic acid]	
≤ 1		Cc1cccc(OC[C@H]2CCCN2c2cc3c(cc2F)c(=O)c(C(=O)O)cn3-c2ccccc2)n1 [Compound 92, (R)-6-fluoro-7-(2-(((6-methyl-pyridin-2-yl)oxy)methyl)pyrrolidin-1-yl)-4-oxo-1-phenyl-1,4-dihydro-quinoline-3-carboxylic acid]	
≤ 1		O=C(O)c1cn(-c2ccccc2)c2cc(N3CCC[C@@H]3COc3ncccc3C(F)(F)F)c(F)cc2c1=O [Compound 100, (R)-6-fluoro-4-oxo-1-phenyl-7-(2-(((3-(trifluoro-methyl)pyridin-2-yl)oxy)methyl)pyrrolidin-1-yl)-1,4-dihydro-quinoline-3-carboxylic acid]	
	1 to 10	O=C(O)c1cn(-c2nncs2)c2cc(N3CCC[C@@H]3COc3ccccn3)c(F)cc2c1=O [Example 433, (R)-6-fluoro-4-oxo-7-(2-((pyridin-2-yloxy)methyl)pyrrolidin-1-yl)-1-(1,3,4-thiadiazol-2-yl)-1,4-dihydroquinoline-3-carboxylic acid]	
≤ 1		O=C(O)c1cn(-c2ccc(O)cc2)c2cc(N3CCC[C@@H]3Cn3ccc4cccnc43)c(F)cc2c1=O [Compound 113, (R)-7-(2-((1H-pyrrolo[2,3-b]pyridin-1-yl)methyl)pyrrolidin-1-yl)-6-fluoro-1-(4-hydroxy-phenyl)-4-oxo-1,4-dihydro-quinoline-3-carboxylic acid]	
1 to 10		O=C(O)c1cn(C2CC2)c2cc(N3CCC[C@@H]3COc3ccccn3)c(Cl)cc2c1=O [Compound 111, (R)-6-chloro-1-cyclopropyl-4-oxo-7-(2-((pyridin-2-yloxy)methyl)pyrrolidin-1-yl)-1,4-dihydro-quinoline-3-carboxylic acid]	
≤ 1		O=C(O)c1cn(-c2ccc(N3CCC3)nc2)c2cc(N3CCC[C@@H]3COc3ncccc3F)c(Cl)cc2c1=O [Compound 289, (R)-1-(6-(azetidin-1-yl)pyridin-3-yl)-6-chloro-7-(2-(((3-fluoropyridin-2-yl)oxy)methyl)pyrrolidin-1-yl)-4-oxo-1,4-dihydro-quinoline-3-carboxylic acid]	
